# From patent publication US9062041B2 (Bayer Intellectual Property GmbH, priority 2011, dated 2015)
# Legend:
# Format in all cases: cell-based
# [1] = target: EP2 subtype of the human PGE2 receptor (Homo sapiens, UniProt P43116); assay: cAMP antagonism test on the human EP2 receptor (HTRF cAMP detection); details: hEP2 receptor, read-out: Antagonism hEP2 IC50
# Procedure, shortened: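 Cells expressing human EP2 preincubated 20 min at RT with compound (0.8 nM–16.5 μM), then stimulated 60 min with PGE2 (3× solution 1.5 nM) in PBS-IBMX. After 20 min lysis, cAMP measured by competitive HTRF with cAMP-d2 and Eu cryptate anti-cAMP antibody (665/620 nm ratio).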
# [2] = target: EP4 subtype of the human PGE2 receptor (Homo sapiens, UniProt P35408); assay: cAMP antagonism test on the human EP4 receptor (HTRF cAMP detection); details: selectivity towards hEP4, IC50 measured by cAMP antagonism test
# Procedure, shortened: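 Cells expressing human EP4 preincubated 20 min at RT with compound (0.8 nM–16.5 μM), then stimulated with PGE2 (0.3 nM in 3× solution, with IBMX) 60 min at RT. After lysis, cAMP measured by HTRF competition (665/620 nm ratio); antagonism seen as rise in FRET signal.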
# [3] = target: T1, human PGD receptor (Homo sapiens, UniProt Q13258); assay: cAMP antagonism test on the human prostaglandin D receptor (HTRF cAMP detection); details: selectivity towards hDP, IC50 measured by cAMP antagonism test
# T1 sequence (Q13258 1-359): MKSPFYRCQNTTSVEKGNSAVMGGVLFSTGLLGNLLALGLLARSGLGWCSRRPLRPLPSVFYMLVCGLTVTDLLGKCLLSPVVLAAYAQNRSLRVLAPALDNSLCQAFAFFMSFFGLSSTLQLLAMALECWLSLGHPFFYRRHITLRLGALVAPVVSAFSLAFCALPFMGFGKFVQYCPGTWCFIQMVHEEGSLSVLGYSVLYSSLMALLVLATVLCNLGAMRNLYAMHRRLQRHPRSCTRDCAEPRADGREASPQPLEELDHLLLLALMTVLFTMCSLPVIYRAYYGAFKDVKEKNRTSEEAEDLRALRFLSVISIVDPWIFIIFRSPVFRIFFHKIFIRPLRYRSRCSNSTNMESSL
# Procedure, shortened: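 Cells pre-mixed with cAMP-d2 were preincubated with compound (0.8 nM–16.5 μM) for 20 min at RT, then stimulated with 3× PGD2 solution (6 nM, in PBS-IBMX) for 30 min at RT. After lysis (20 min), HTRF read at 665/620 nm; antagonism seen as rise in FRET ratio.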
# Sequence of EP2 subtype of the human PGE2 receptor (P43116 whole entry): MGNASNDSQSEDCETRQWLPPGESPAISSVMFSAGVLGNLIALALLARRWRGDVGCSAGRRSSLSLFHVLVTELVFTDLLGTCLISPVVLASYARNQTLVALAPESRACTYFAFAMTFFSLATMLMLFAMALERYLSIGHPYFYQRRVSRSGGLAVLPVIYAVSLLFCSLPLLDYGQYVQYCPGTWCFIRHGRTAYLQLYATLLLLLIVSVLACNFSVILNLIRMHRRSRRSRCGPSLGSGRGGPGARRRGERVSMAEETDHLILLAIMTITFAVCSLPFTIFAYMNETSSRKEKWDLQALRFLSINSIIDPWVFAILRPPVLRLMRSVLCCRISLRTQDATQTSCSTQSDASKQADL
# Sequence of EP4 subtype of the human PGE2 receptor (P35408 whole entry): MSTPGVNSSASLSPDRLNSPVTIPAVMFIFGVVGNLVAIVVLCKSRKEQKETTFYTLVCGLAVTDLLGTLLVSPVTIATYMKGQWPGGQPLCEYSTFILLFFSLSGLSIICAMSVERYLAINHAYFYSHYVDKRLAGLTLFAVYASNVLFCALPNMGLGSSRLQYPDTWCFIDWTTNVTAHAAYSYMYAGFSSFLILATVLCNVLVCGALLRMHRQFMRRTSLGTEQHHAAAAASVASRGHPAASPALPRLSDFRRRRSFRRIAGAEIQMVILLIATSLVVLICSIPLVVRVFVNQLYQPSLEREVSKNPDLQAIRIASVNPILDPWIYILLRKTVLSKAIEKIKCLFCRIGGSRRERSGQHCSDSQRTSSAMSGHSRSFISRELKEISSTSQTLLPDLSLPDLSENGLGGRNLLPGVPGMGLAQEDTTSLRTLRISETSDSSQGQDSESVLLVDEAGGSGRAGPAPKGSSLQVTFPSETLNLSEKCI
smiles,measurement,setting,value
"Cc1c(C(=O)NCC2CCCCO2)ccc2nn(CC3CCN(C(=O)c4ccc(Cl)cc4)CC3)cc12 (single isomer, unassigned) [Example 240, (R or S)-2-{[1-(4-chlorobenzoyl)piperidin-4-yl]methyl}-4-methyl-N-(3,4,5,6-tetrahydro-2H-pyran-2-ylmethyl)-2H-indazol-5-carboxamide]",IC50,[1],25.1 nM
same,Selectivity hEP2/hEP4,[2],xxx (xxx > 100)
same,Selectivity hEP2/hDP,[3],xxx (xxx > 100)
"COCCNC(=O)c1ccc2nn(CC3CN(C(=O)c4ccc(C(F)(F)F)c(F)c4)C3)cc2c1C [Example 122, 2-({1-[3-fluoro-4-(trifluoromethyl)benzoyl]azetidin-3-yl}methyl)-N-(2-methoxy-ethyl)-4-methyl-2H-indazol-5-carboxamide]",IC50,[1],28.6 nM
same,Selectivity hEP2/hEP4,[2],xxx (xxx > 100)
same,Selectivity hEP2/hDP,[3],xxx (xxx > 100)
"O=C(NCCOCC1CC1)c1ccc2nn(CC3CCN(C(=O)c4ccc(Cl)cc4)CC3)cc2c1OC(F)F [Example 229, 2-{[1-(4-chlorobenzoyl)piperidin-4-yl]methyl}-N-[2-(cyclopropylmethoxy)-ethyl]-4-(difluoromethoxy)-2H-indazol-5-carboxamide]",IC50,[1],10.2 nM
same,Selectivity hEP2/hEP4,[2],xxx (xxx > 100)
same,Selectivity hEP2/hDP,[3],xxx (xxx > 100)
"Cc1c(C(=O)NCC2COCCO2)ccc2nn(CC3CN(C(=O)c4ccc(Oc5ccc(F)cc5)cc4)C3)cc12 (racemic) [Example 148, (+/−)-N-(1,4-dioxan-2-ylmethyl)-2-({1-[4-(4-fluorophenoxy)benzoyl]azetidin-3-yl}methyl)-4-methyl-2H-indazol-5-carboxamide]",IC50,[1],27.4 nM
same,Selectivity hEP2/hEP4,[2],xxx (xxx > 100)
same,Selectivity hEP2/hDP,[3],xxx (xxx > 100)
"Cc1c(C(=O)NCC(F)(F)F)ccc2nn(CC3CCN(C(=O)c4ccc(Oc5ccc(Cl)cn5)cc4)CC3)cc12 [Example 311, 2-[(1-{4-[(5-chloropyridin-2-yl)oxy]benzoyl}piperidin-4-yl)methyl]-4-methyl-N-(2,2,2-trifluoroethyl)-2H-indazol-5-carboxamide]",IC50,[1],84.1 nM
same,Selectivity hEP2/hEP4,[2],xxx (xxx > 100)
same,Selectivity hEP2/hDP,[3],xxx (xxx > 100)
"Cc1c(C(=O)NCC(C)C)ccc2nn(CC3CCN(C(=O)c4ccc(Cl)cc4)CC3)cc12 [Example 243, 2-{[1-(4-chlorobenzoyl)piperidin-4-yl]methyl}-N-isobutyl-4-methyl-2H-indazol-5-carboxamide]",IC50,[1],335 nM
same,Selectivity hEP2/hEP4,[2],xx (xx: 10-100)
same,Selectivity hEP2/hDP,[3],xx (xx: 10-100)
"COCCNC(=O)c1ccc2nn(CC3CCN(C(=O)c4ccc(OC(F)F)cc4F)CC3)cc2c1C [Example 40, 2-({1-[4-(difluoro-methoxy)-2-fluoro-benzoyl]piperidin-4-yl}methyl)-N-(2-methoxyethyl)-4-methyl-2H-indazol-5-carboxamide]",IC50,[1],11.5 nM
same,Selectivity hEP2/hEP4,[2],xxx (xxx > 100)
same,Selectivity hEP2/hDP,[3],xxx (xxx > 100)
"Cc1c(C(=O)NCC(F)(F)F)ccc2nn(CC3CN(C(=O)c4ccc(Oc5ccc(C(F)(F)F)cc5)cc4)C3)cc12 [Example 164, 4-methyl-N-(2,2,2-trifluoroethyl)-2-[(1-{4-[4-(trifluoromethyl)phenoxy]benzoyl}azetidin-3-yl)methyl]-2H-indazol-5-carboxamide]",IC50,[1],10.9 nM
same,Selectivity hEP2/hEP4,[2],xxx (xxx > 100)
same,Selectivity hEP2/hDP,[3],xxx (xxx > 100)
"COCCNC(=O)c1ccc2nn(CC3CCN(C(=O)c4ccc(-c5ccc(F)cc5)cc4)CC3)cc2c1OCC(F)(F)F [Example 234, 2-({1-[(4′-fluorobiphenyl-4-yl)carbonyl]piperidin-4-yl}methyl)-N-(2-methoxy-ethyl)-4-(2,2,2-trifluoroethoxy)-2H-indazol-5-carboxamide]",IC50,[1],47.7 nM
same,Selectivity hEP2/hEP4,[2],xxx (xxx > 100)
same,Selectivity hEP2/hDP,[3],xxx (xxx > 100)
"COCCNC(=O)c1ccc2nn(CC3CCN(C(=O)c4ccc(C5CC5)cc4)CC3)cc2c1OC(F)F [Example 228, 2-{[1-(4-cyclopropylbenzoyl)piperidin-4-yl]methyl}-4-(difluoromethoxy)-N-(2-methoxyethyl)-2H-indazol-5-carboxamide]",IC50,[1],8.09 nM
same,Selectivity hEP2/hEP4,[2],xxx (xxx > 100)
same,Selectivity hEP2/hDP,[3],xxx (xxx > 100)
"Cc1c(C(=O)NCCSC(F)(F)F)ccc2nn(CC3CN(C(=O)c4ccc(OC(F)(F)F)cc4)C3)cc12 [Example 133, 4-methyl-2-({1-[4-(trifluoromethoxy)benzoyl]azetidin-3-yl}methyl)-N-{2-[(trifluoromethyl)sulphanyl]ethyl}-2H-indazol-5-carboxamide]",IC50,[1],41.9 nM
same,Selectivity hEP2/hEP4,[2],xxx (xxx > 100)
same,Selectivity hEP2/hDP,[3],xxx (xxx > 100)
"Cc1c(C(=O)NCCSC(F)(F)F)ccc2nn(CC3CN(C(=O)c4ccc(S(F)(F)(F)(F)F)cc4)C3)cc12 [Example 135, 4-methyl-2-({1-[4-(pentafluoro-λ^6-sulphanyl)benzoyl]azetidin-3-yl}methyl)-N-{2-[(trifluoromethyl)sulphanyl]ethyl}-2H-indazol-5-carboxamide]",IC50,[1],19.5 nM
same,Selectivity hEP2/hEP4,[2],xxx (xxx > 100)
same,Selectivity hEP2/hDP,[3],xxx (xxx > 100)
"COCCNC(=O)c1cc2cn(CC3CN(C(=O)c4ccc(SC(F)(F)F)cc4)C3)nc2cc1C [Example 180, N-(2-methoxyethyl)-6-methyl-2-[(1-{4-[(trifluoromethyl)sulphanyl]benzoyl}azetidin-3-yl)methyl]-2H-indazol-5-carboxamide]",IC50,[1],17.3 nM
same,Selectivity hEP2/hEP4,[2],xxx (xxx > 100)
same,Selectivity hEP2/hDP,[3],xxx (xxx > 100)
"COCCNC(=O)c1ccc2nn(CC3CCN(C(=O)c4ccc(-c5ccc(OC)cn5)cc4)CC3)cc2c1C [Example 373, N-(2-methoxyethyl)-2-({1-[4-(5-methoxypyridin-2-yl)benzoyl]piperidin-4-yl}-methyl)-4-methyl-2H-indazol-5-carboxamide]",IC50,[1],40.7 nM
same,Selectivity hEP2/hEP4,[2],xxx (xxx > 100)
same,Selectivity hEP2/hDP,[3],xxx (xxx > 100)
"Cc1c(C(=O)NCC(C)OC2CCC2)ccc2nn(CC3CN(C(=O)c4ccc(Cl)cc4)C3)cc12 (single isomer, unassigned) [Example 155, (S or R)-2-{[1-(4-chlorobenzoyl)azetidin-3-yl]methyl}-N-[2-(cyclobutyloxy)-propyl]-4-methyl-2H-indazol-5-carboxamide]",IC50,[1],29.4 nM
same,Selectivity hEP2/hEP4,[2],xxx (xxx > 100)
same,Selectivity hEP2/hDP,[3],xxx (xxx > 100)
"COCCNC(=O)c1ccc2nn(CC3CCN(C(=O)c4ccc(-c5ccc(Cl)cc5OC)cc4)CC3)cc2c1C [Example 381, 2-({1-[(4′-chloro-2′-methoxybiphenyl-4-yl)carbonyl]piperidin-4-yl}methyl)-N-(2-methoxyethyl)-4-methyl-2H-indazol-5-carboxamide]",IC50,[1],5.84 nM
same,Selectivity hEP2/hEP4,[2],xxx (xxx > 100)
same,Selectivity hEP2/hDP,[3],xxx (xxx > 100)
"Cc1c(C(=O)NCC(F)(F)F)ccc2nn(CC3CCN(C(=O)c4ccc(Oc5ccc(C#N)cn5)cc4)CC3)cc12 [Example 310, 2-[(1-{4-[(5-cyanopyridin-2-yl)oxy]benzoyl}piperidin-4-yl)methyl]-4-methyl-N-(2,2,2-trifluoroethyl)-2H-indazol-5-carboxamide]",IC50,[1],806 nM
same,Selectivity hEP2/hEP4,[2],xx (xx: 10-100)
same,Selectivity hEP2/hDP,[3],xx (xx: 10-100)
"COCCNC(=O)c1ccc2nn(CC3CCN(C(=O)c4ccc5cc(OC)ccc5c4)CC3)cc2c1C [Example 336, N-(2-methoxyethyl)-2-{[1-(6-methoxy-2-naphthoyl)piperidin-4-yl]methyl}-4-methyl-2H-indazol-5-carboxamide]",IC50,[1],5.59 nM
same,Selectivity hEP2/hEP4,[2],xxx (xxx > 100)
same,Selectivity hEP2/hDP,[3],xxx (xxx > 100)
"COCCNC(=O)c1ccc2nn(CC3CCN(C(=O)c4ccc(SC(F)(F)F)cc4)CC3)cc2c1OC [Example 269, 4-methoxy-N-(2-methoxyethyl)-2-[(1-{4-[(trifluoromethyl)sulphanyl]benzoyl}-piperidin-4-yl)methyl]-2H-indazol-5-carboxamide]",IC50,[1],7.54 nM
same,Selectivity hEP2/hEP4,[2],xxx (xxx > 100)
same,Selectivity hEP2/hDP,[3],xxx (xxx > 100)
"Cc1c(C(=O)NCCSC(F)(F)F)ccc2nn(CC3CN(C(=O)c4ccc(C(F)(F)F)cc4F)C3)cc12 [Example 134, 2-({1-[2-fluoro-4-(trifluoromethyl)benzoyl]azetidin-3-yl}methyl)-4-methyl-N-{2-[(trifluoromethyl)sulphanyl]ethyl}-2H-indazol-5-carboxamide]",IC50,[1],56.5 nM
same,Selectivity hEP2/hEP4,[2],xxx (xxx > 100)
same,Selectivity hEP2/hDP,[3],xxx (xxx > 100)
